Experimental data published in PubChem BioAssay AID320 (DTP/NCI, 2004).
Where “and” joins values, the source holds several entries; their conditions need not be identical. Identical values can stand only once. Toxic doses and inconclusive results are not listed.

System: BDF1 mice, P329 reticulum cell sarcoma ip, survival T/C
Experiment: NCI In Vivo Anticancer Drug Screen. Data for tumor model P329 Reticulum Cell Sarcoma (intraperitoneal) in B6D2F1 (BDF1) mice
Conditions: endpoint: median survival time, higher = longer survival
Description: The antitumor activity of compounds was measured in mice bearing transplantable tumors. Survival or tumor size were measured and the results are expressed as the measurement made in the treated group (T) divided by the measurement made in the vehicle treated control group (C). The tumor model used in this assay is P329 Reticulum Cell Sarcoma (intraperitoneal) in B6D2F1 (BDF1) mice

[1] = dose: 10.0 mg/kg/injection, schedule: Q01DX010 (ip), vehicle: saline
[2] = dose: 80.0 mg/kg/injection, schedule: Q01DX010 (ip), vehicle: saline
[3] = dose: 1.5 mg/kg/injection, schedule: Q01DX010 (ip), vehicle: saline
[4] = dose: 3.0 mg/kg/injection, schedule: Q01DX010 (ip), vehicle: saline
[5] = dose: 6.0 mg/kg/injection, schedule: Q01DX010 (ip), vehicle: saline
[6] = dose: 12.0 mg/kg/injection, schedule: Q01DX010 (ip), vehicle: saline
[7] = dose: 5.0 mg/kg/injection, schedule: Q01DX010 (ip), vehicle: saline
[8] = dose: 120.0 mg/kg/injection, schedule: Q01DX010 (ip), vehicle: saline
[9] = dose: 25.0 mg/kg/injection, schedule: Q01DX010 (ip), vehicle: saline
[10] = dose: 12.5 mg/kg/injection, schedule: Q01DX010 (ip), vehicle: saline
[11] = dose: 50.0 mg/kg/injection, schedule: Q01DX010 (ip), vehicle: saline
[12] = dose: 100.0 mg/kg/injection, schedule: Q01DX010 (ip), vehicle: saline
[13] = dose: 200.0 mg/kg/injection, schedule: Q01DX010 (ip), vehicle: saline
[14] = dose: 18.8 mg/kg/injection, schedule: Q01DX010 (ip), vehicle: saline
[15] = dose: 37.5 mg/kg/injection, schedule: Q01DX010 (ip), vehicle: saline
[16] = dose: 75.0 mg/kg/injection, schedule: Q01DX010 (ip), vehicle: saline

## Cn1c(N)nc2nc[nH]c2c1=S
[1]
  T/C: 100 % of control
dose: 20.0 mg/kg/injection, schedule: Q01DX010 (ip), vehicle: saline
  T/C: 106 % of control
dose: 40.0 mg/kg/injection, schedule: Q01DX010 (ip), vehicle: saline
  T/C: 100 % of control
[2]
  T/C: 106 % of control

## N=C(N)c1ccc(Nc2ccc(C(=N)N)cc2)cc1
[3]
  T/C: 93 % of control
[4]
  T/C: 87 % of control
[5]
  T/C: 96 % of control
[6]
  T/C: 90 % of control

## CS(=O)(=O)OCCN(CCOS(C)(=O)=O)c1ccc(N=O)cc1
dose: 1.0 mg/kg/injection, schedule: Q01DX010 (ip), vehicle: saline
  T/C: 107 % of control

## CCn1cnc2c(=S)nc[nH]c21
dose: 15.6 mg/kg/injection, schedule: Q01DX010 (ip), vehicle: saline
  T/C: 111 % of control and 114 % of control
dose: 31.3 mg/kg/injection, schedule: Q01DX010 (ip), vehicle: saline
  T/C: 114 % of control and 123 % of control
dose: 125.0 mg/kg/injection, schedule: Q01DX010 (ip), vehicle: saline
  T/C: 89 % of control and 100 % of control

## NC(Cc1ccc(N(CCCl)CCCl)cc1)C(=O)O (configuration not stated)
[7]
  T/C: 153 % of control
[1]
  T/C: 175 % of control

## N#CCSc1ncnc2nc[nH]c12
dose: 15.0 mg/kg/injection, schedule: Q01DX010 (ip), vehicle: saline
  T/C: 150 % of control
dose: 30.0 mg/kg/injection, schedule: Q01DX010 (ip), vehicle: saline
  T/C: 115 % of control
[8]
  T/C: 173 % of control

## CSc1ncnc2nc[nH]c12
[9]
  T/C: 115 % of control and 123 % of control

## C[C@]12C=CC(=O)C=C1CC[C@@H]1[C@@H]2[C@@H](O)C[C@@]2(C)[C@H]1CC[C@]2(O)C(=O)CO
dose: 12.5 mg/kg/injection, schedule: Q01DX010 (sc), vehicle: steriod suspending solution
  T/C: 100 % of control and 103 % of control
dose: 25.0 mg/kg/injection, schedule: Q01DX010 (sc), vehicle: steriod suspending solution
  T/C: 100 % of control
dose: 50.0 mg/kg/injection, schedule: Q01DX010 (sc), vehicle: steriod suspending solution
  T/C: 100 % of control
dose: 100.0 mg/kg/injection, schedule: Q01DX010 (sc), vehicle: steriod suspending solution
  T/C: 100 % of control

## O=NN(CCCl)C(=O)NCCCl
dose: 3.13 mg/kg/injection, schedule: Q01DX010 (ip), vehicle: saline
  T/C: 158 % of control
dose: 6.25 mg/kg/injection, schedule: Q01DX010 (ip), vehicle: saline
  T/C: 157 % of control and 158 % of control
[10]
  T/C: 103 % of control

## N#[N+]c1cnc([O-])[nH]c1=O
dose: 1.25 mg/kg/injection, schedule: Q01DX010 (ip), vehicle: saline
  T/C: 122 % of control
dose: 2.5 mg/kg/injection, schedule: Q01DX010 (ip), vehicle: saline
  T/C: 103 % of control
[7]
  T/C: 110 % of control
[1]
  T/C: 117 % of control

## C#CCN(C)Cc1ccccc1
[9]
  T/C: 100 % of control
[11]
  T/C: 100 % of control
[12]
  T/C: 93 % of control
[13]
  T/C: 106 % of control

## CS(=O)(=O)OCC(O)C(O)C(O)C(O)COS(C)(=O)=O (configuration not stated)
[9]
  T/C: 100 % of control
[11]
  T/C: 100 % of control and 103 % of control
[12]
  T/C: 107 % of control
[13]
  T/C: 121 % of control and 123 % of control

## CC/C(=C(/CC)c1ccc(O)cc1)c1ccc(O)cc1
[10]
  T/C: 107 % of control
[9]
  T/C: 96 % of control and 107 % of control
[11]
  T/C: 100 % of control and 103 % of control
[12]
  T/C: 88 % of control

## CS(=O)(=O)OCCCl
dose: 9.4 mg/kg/injection, schedule: Q01DX010 (ip), vehicle: saline
  T/C: 107 % of control
[14]
  T/C: 96 % of control and 100 % of control
[15]
  T/C: 92 % of control and 107 % of control
[16]
  T/C: 92 % of control and 107 % of control

## Nc1ncnc2[nH]ncc12
[3]
  T/C: 107 % of control
[4]
  T/C: 111 % of control
[5]
  T/C: 123 % of control
[6]
  T/C: 88 % of control and 103 % of control

## CN(C)c1ccc(Nc2c3ccccc3nc3ccccc23)cc1
dose: 36.0 mg/kg/injection, schedule: Q01DX010 (ip), vehicle: saline
  T/C: 121 % of control
[2]
  T/C: 157 % of control
[8]
  T/C: 153 % of control

## CN(C)c1nc(N(C)C)nc(N(C)C)n1
[14]
  T/C: 96 % of control and 103 % of control
[15]
  T/C: 92 % of control and 100 % of control
[16]
  T/C: 92 % of control and 107 % of control
dose: 150.0 mg/kg/injection, schedule: Q01DX010 (ip), vehicle: saline
  T/C: 107 % of control and 114 % of control

## COc1ccc2c(c1OC)C(=O)O[C@@H]2[C@H]1c2c(cc3c(c2OC)OCO3)CCN1C
dose: 62.5 mg/kg/injection, schedule: Q01DX010 (ip), vehicle: saline
  T/C: 92 % of control
